Results: patent US8323706B2, “Antiestrogenic glyceollins suppress human breast and ovarian carcinoma proliferation and tumorigenesis” (The United States of America, as represented by the …, priority 2005, dated 2012)

Assays:
Mouse uteri = assay: Uterine weight and morphology (uterotrophic assay) in nu/nu mice
[1] = system: BG-1 ovarian carcinoma cells; assay: BG-1 xenograft tumor growth in ovariectomized nu/nu mice; format: in vivo; conditions: estradiol pellet alone; day 20; mean±SEM
Procedure: (§1) Cages, bedding, food, and water were autoclaved before use. […] Tumor size was measured every two days using calipers.
(§2) The in vivo effects of glyceollins on tumor growth formation were determined. MCF-7 or BG-1 cells were implanted into the mammary fat pad of female ovariectomized nude mice. Mice were divided into two groups: those animals implanted s.c. with estradiol pellets and those without. Tumors were implanted using Matrigel (reduced factor) to enhance tumor incidence and promote tumor growth in the presence and absence of estrogen. Glyceollins (or vehicle) were injected daily for 20 days. Measurable tumors were observed on Day 8 for both MCF-7 cells (FIG. 3) and BG-1 cells (FIG. 4). […] Estrogen stimulated the formation of rapidly growing tumors in both MCF-7 and BG-1 implanted mice, reaching a maximal size of 3074±843 mm^3 in MCF-7 and 3836±756 mm^3 in BG-1 implanted animals by day 20 of treatment. In the negative control animals (without estrogen pellets or glyceollins), tumor incidence occurred on […] and tumors grew slowly with a maximal size of 899±24 mm^3 for MCF-7 cells and 976±42 mm^3 for BG-1 cells on day 20 of treatment. […]
(§3) Data Analysis: Data for MCF-7N and BG-1 tumor size were analyzed separately using repeated measures two-way ANOVA with treatment and time as independent factors (SigmaStat 3.1). […]

[2] = system: progesterone receptor (PR); assay: Progesterone receptor immunohistochemistry in MCF-7 tumor explants; format: in vivo, mice; conditions: treatment alone vs control; MCF-7 tumors
Source text: (§4) Tumor explants were resected at necropsy, fixed in 70% ethanol, embedded in paraffin, and immunostained using a primary monoclonal antibody for human progesterone receptor (PR) (NCL-PGR, Novocastra, Newcastle-upon-Tyne, UK). Staining methods included antigen-retrieval with citrate buffer (pH 6.0), biotinylated rabbit anti-mouse Fc antibody as a linking reagent, alkaline phosphatase-conjugated streptavidin as the label, and Vector Red as the chromogen (Vector Laboratories, Burlingame, Calif.). Cell staining was quantified by a computer-assisted counting technique, using a grid filter to select cells for counting (Darvill et al., supra; Burow et al., supra). At least two microscopic fields were randomly selected for each tumor and 200 cells were counted at 40× magnification. Numbers of positively stained cells were expressed as a percentage of the total number examined. All measurements were made blinded to treatment group.
(§5) Progesterone receptor expression is an estrogen-sensitive marker driven by ER transactivation. In this study we used PR immunostaining to evaluate (a) whether glyceollin treatment alone was stimulating the ER as an agonist and (b) whether glyceollin treatment with estradiol (E2) was antagonizing ER activation.

[3] = system: progesterone receptor (PR); assay: Progesterone receptor immunohistochemistry in BG1 tumor explants; format: in vivo, mice; conditions: treatment alone vs control; BG1 tumors
Source text: as §4, §5

[4] = system: MCF-7 breast carcinoma cell; assay: In vitro MCF-7 colony (clonogenicity) assay; format: cell-based, human; conditions: estrogen treatment alone
Procedure: The MCF-7N cell variant is a subclone of MCF-7 cells from the American Type Culture Collection (Manassas, Va.) that was generously provided by Louise Nutter (University of Minnesota, Minneapolis, Minn.) and has been previously described (Graham et al., supra). The BG-1 cell line has been previously described. MCF-7 and BG-1 cells were grown in Dulbecco's modified minimal medium (pH 7.4; Life Technologies, Inc., Grand Island, N.Y.) supplemented with 10% fetal bovine serum (Hyclone, Salt Lake City, Utah). For studies with estrogen, the cells were cultured in medium supplemented with 5% charcoal-stripped fetal bovine serum. The cells were incubated at 37° C. in an atmosphere of 5% CO2 and air.
MCF-7 cells are plated at 10^3/well in 6 well Cluster dishes, and incubated overnight. Cells are cultured and treated in DMEM without phenol red; phenol red interacts with estrogen receptors. Treatment and control plates were incubated at 37° C., 5% CO2. Plates were observed periodically. When colonies were of a size of 50 cells or more, at Day 14, cells were fixed with glutaraldehyde for 30 min at 37° C., washed, and stained with Crystal violet (0.4%) for 1 hr. Colonies were counted manually. This method is used to study the effects of chemical or physical agents on cell survival and proliferation; 1 colony=1 cell. […]

[5] = system: MCF-7 breast carcinoma cells; assay: MCF-7 xenograft tumor growth in ovariectomized nu/nu mice; format: in vivo; conditions: estradiol pellet alone; day 20; mean±SEM
Procedure: as §1, §2, §3

## C[C@]12CC[C@@H]3c4ccc(O)cc4CC[C@H]3[C@@H]1CC[C@@H]2O [Glyceollin E2, 17β-estradiol]
Mouse uteri; H&E-stained uteri, treatment alone
  uterine histology: markedly larger with epithelial pseudostratification, stromal edema and hyperplasia, and increased numbers of endometrial glands
Mouse uteri; treatment alone vs control
  Uterine area, uterine diameter, and epithelial height: significantly increased
[1]
  tumor size (maximal): 3836±756 mm^3
[2]
  PR expression: significantly increased PR expression
[3]
  PR expression: significantly increased PR expression
[4]
  colony formation: enhanced colony formation
[5]
  tumor size (maximal): 3074±843 mm^3

## CC/C(=C(\c1ccccc1)c1ccc(OCCN(C)C)cc1)c1ccccc1 [tamoxifen]
Mouse uteri; treatment alone, 20 days
  uterine fixed weight over control: increase uterine fixed weight over control
